Data taken from ChEMBL document CHEMBL3045965, “Design, synthesis, and evaluation of fluorescent cell-penetrating peptidic antagonists of Grb2-SH2 for targeting MCF-7 breast cancer cells” (Med Chem Res, 2013).
Square brackets hold non-standard residues; d marks the D form. Peptide text beside a SMILES is read from it. * marks the point of attachment. Fmoc = O=C(OCC1c2ccccc2-c2ccccc21)*; Aib = CC(C)(N)C(=O)O

Tests used:
MCF7 [1] = experiment: Cytotoxicity against Homo sapiens (human) MCF7 cells assessed as cell viability after 48 hr by MTT assay; format: functional, cell-based; conditions: MCF7, 48 h
MCF7 [2] = experiment: Cytotoxicity against Homo sapiens (human) MCF7 cells assessed as cell viability at 100 uM after 48 hr by MTT assay relative to control; format: functional; conditions: MCF7, 48 h, read-out: Activity
MCF7 [3] = experiment: Cytotoxicity against Homo sapiens (human) MCF7 cells assessed as cell viability at 75 uM after 48 hr by MTT assay relative to control; format: functional; conditions: MCF7, 48 h, read-out: Activity
MCF7 [4] = experiment: Cytotoxicity against Homo sapiens (human) MCF7 cells assessed as cell viability at 50 uM after 48 hr by MTT assay relative to control; format: functional; conditions: MCF7, 48 h, read-out: Activity
MCF7 [5] = experiment: Cytotoxicity against Homo sapiens (human) MCF7 cells assessed as cell viability at 25 uM after 48 hr by MTT assay relative to control; format: functional; conditions: MCF7, 48 h, read-out: Activity
MCF7 [6] = experiment: Cytotoxicity against Homo sapiens (human) MCF7 cells assessed as cell viability after 24 hr by MTT assay; format: functional, cell-based; conditions: MCF7, 24 h
[7] = molecular target: Growth factor receptor-bound protein 2 (Homo sapiens, UniProt P62993); experiment: Binding affinity to Grb2-SH2 (unknown origin) by surface plasmon resonance analysis
Growth factor receptor-bound protein 2, sequence (P62993 whole entry): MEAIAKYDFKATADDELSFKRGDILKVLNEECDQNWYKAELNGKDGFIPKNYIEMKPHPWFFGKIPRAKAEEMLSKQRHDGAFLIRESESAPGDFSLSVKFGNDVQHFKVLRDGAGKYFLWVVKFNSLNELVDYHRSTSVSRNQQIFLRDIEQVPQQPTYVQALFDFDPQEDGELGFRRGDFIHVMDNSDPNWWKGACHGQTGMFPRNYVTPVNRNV

SMILES | IC50 (MCF7 [1]) [µM] | viability at 100 µM (MCF7 [2]) [%] | viability at 75 µM (MCF7 [3]) [%] | viability at 50 µM (MCF7 [4]) [%] | viability at 25 µM (MCF7 [5]) [%] | IC50 (MCF7 [6]) [µM] | Kd [7] [nM]
CC(C)(NC(=O)[C@H](Cc1ccc(O)cc1)NC(=O)[C@@H](N)CCC(=O)O)C(=O)N[C@@H](CC(N)=O)C(=O)NCC(=O)N[C@@H](CCCNC(=N)N)C(=O)N[C@@H](CCCCN)C(=O)N[C@@H](CCCCN)C(=O)N[C@@H](CCCNC(=N)N)C(=O)N[C@@H](CCCNC(=N)N)C(=O)O (H-EY[Aib]NGRKKRR-OH) | > 100 | 93.1 | 91.5 | 99.4 | 90.7 |  | 
CC[C@H](C)[C@H](NC(=O)[C@H](C)NC(=O)[C@@H](NC(=O)[C@H](Cc1ccc(O)cc1)NC(=O)[C@H](CC(N)=O)NC(=O)C(C)(C)NC(=O)[C@H](Cc1ccc(O)cc1)NC(=O)[C@@H](N)CCC(=O)O)[C@@H](C)O)C(=O)N[C@@H](C)C(=O)N[C@@H](Cc1c[nH]c2ccccc12)C(=O)N[C@H](C(=O)N[C@@H](CCCCN)C(=O)N[C@@H](C)C(=O)N[C@@H](Cc1ccccc1)C(=O)N[C@H](C(=O)N[C@@H](CCCNC(=N)N)C(=O)N[C@@H](CCCCN)C(=O)N[C@@H](CC(C)C)C(=O)N[C@@H](CCCNC(=N)N)C(=O)N[C@@H](CCCCN)C(=O)O)[C@@H](C)CC)C(C)C (H-EY[Aib]NYTAIAWVKAFIRKLRK-OH) | 67.1 | 19.3 | 40.5 | 80.4 | 95.4 | 87 | 
CC[C@H](C)[C@H](NC(=O)[C@H](C)NC(=O)[C@@H](NC(=O)[C@@H](N)Cc1ccc(O)cc1)[C@@H](C)O)C(=O)N[C@@H](C)C(=O)N[C@@H](Cc1c[nH]c2ccccc12)C(=O)N[C@H](C(=O)N[C@@H](CCCCN)C(=O)N[C@@H](C)C(=O)N[C@@H](Cc1ccccc1)C(=O)N[C@H](C(=O)N[C@@H](CCCNC(=N)N)C(=O)N[C@@H](CCCCN)C(=O)N[C@@H](CC(C)C)C(=O)N[C@@H](CCCNC(=N)N)C(=O)N[C@@H](CCCCN)C(=O)O)[C@@H](C)CC)C(C)C (H-YTAIAWVKAFIRKLRK-OH) | > 100 | 94.9 | 96.4 | 97.7 | 101 |  | 
CC[C@H](C)[C@H](NC(=O)[C@H](C)NC(=O)[C@@H](N)Cc1ccc(O)cc1)C(=O)N[C@@H](C)C(=O)N[C@@H](Cc1c[nH]c2ccccc12)C(=O)N[C@H](C(=O)N[C@@H](CCCCN)C(=O)N[C@@H](C)C(=O)N[C@@H](Cc1ccccc1)C(=O)N[C@H](C(=O)N[C@@H](CCCNC(=N)N)C(=O)N[C@@H](CCCCN)C(=O)N[C@@H](CC(C)C)C(=O)N[C@@H](CCCNC(=N)N)C(=O)N[C@@H](CCCCN)C(=O)N[C@@H](CCC(=O)O)C(=O)N[C@@H](Cc1ccc(O)cc1)C(=O)NC(C)(C)C(=O)N[C@@H](CC(N)=O)C(=O)O)[C@@H](C)CC)C(C)C (H-YAIAWVKAFIRKLRKEY[Aib]N-OH) | > 100 | 59.9 | 64.5 | 74.4 | 83.8 |  | 
CC(C)(NC(=O)[C@H](Cc1ccc(O)cc1)NC(=O)[C@H](CCC(=O)O)NC(=O)[C@H](CCCNC(=N)N)NC(=O)[C@H](CCCNC(=N)N)NC(=O)[C@H](CCCCN)NC(=O)[C@H](CCCCN)NC(=O)[C@H](CCCNC(=N)N)NC(=O)CN)C(=O)N[C@@H](CC(N)=O)C(=O)O (H-GRKKRREY[Aib]N-OH) | > 100 | 82.1 | 83.2 | 91.6 | 90.9 |  | 
CC(C)(NC(=O)[C@H](Cc1ccc(O)cc1)NC(=O)[C@H](CCC(=O)O)NC(=O)OCC1c2ccccc2-c2ccccc21)C(=O)N[C@@H](CC(N)=O)C(=O)O (Fmoc-EY[Aib]N-OH) |  | 95.1 | 98.2 | 104 | 104 |  | 6.3
N=C(N)NCCC[C@H](NC(=O)[C@H](CCCNC(=N)N)NC(=O)[C@H](CCCCN)NC(=O)[C@H](CCCCN)NC(=O)[C@H](CCCNC(=N)N)NC(=O)CN)C(=O)O (H-GRKKRR-OH) | > 100 | 95.4 | 102 | 98.5 | 93.9 |  | 
CC(C)(NC(=O)[C@H](Cc1ccc(O)cc1)NC(=O)[C@H](CCC(=O)O)NC(=O)OCC1c2ccccc2-c2ccccc21)C(=O)N[C@@H](CC(N)=O)C(=O)NCC(=O)N[C@@H](CCCNC(=N)N)C(=O)N[C@@H](CCCCN)C(=O)N[C@@H](CCCCN)C(=O)N[C@@H](CCCNC(=N)N)C(=O)N[C@@H](CCCNC(=N)N)C(=O)O (Fmoc-EY[Aib]NGRKKRR-OH) | > 100 | 85.3 | 90.9 | 91.6 | 84.2 |  | 
CC[C@H](C)[C@H](NC(=O)[C@H](C)NC(=O)[C@@H](NC(=O)[C@H](Cc1ccc(O)cc1)NC(=O)[C@H](CC(N)=O)NC(=O)C(C)(C)NC(=O)[C@H](Cc1ccc(O)cc1)NC(=O)[C@H](CCC(=O)O)NC(=O)OCC1c2ccccc2-c2ccccc21)[C@@H](C)O)C(=O)N[C@@H](C)C(=O)N[C@@H](Cc1c[nH]c2ccccc12)C(=O)N[C@H](C(=O)N[C@@H](CCCCN)C(=O)N[C@@H](C)C(=O)N[C@@H](Cc1ccccc1)C(=O)N[C@H](C(=O)N[C@@H](CCCNC(=N)N)C(=O)N[C@@H](CCCCN)C(=O)N[C@@H](CC(C)C)C(=O)N[C@@H](CCCNC(=N)N)C(=O)N[C@@H](CCCCN)C(=O)O)[C@@H](C)CC)C(C)C (Fmoc-EY[Aib]NYTAIAWVKAFIRKLRK-OH) | > 100 | 79.8 | 77.3 | 86.5 | 94.1 |  | 
CC[C@H](C)[C@H](NC(=O)[C@H](C)NC(=O)[C@@H](NC(=O)[C@H](Cc1ccc(O)cc1)NC(=O)[C@H](Cc1ccc(O)cc1)NC(=O)[C@H](CCC(=O)O)NC(=O)C(C)(C)NC(=O)[C@@H](N)CC(N)=O)[C@@H](C)O)C(=O)N[C@@H](C)C(=O)N[C@@H](Cc1c[nH]c2ccccc12)C(=O)N[C@H](C(=O)N[C@@H](CCCCN)C(=O)N[C@@H](C)C(=O)N[C@@H](Cc1ccccc1)C(=O)N[C@H](C(=O)N[C@@H](CCCNC(=N)N)C(=O)N[C@@H](CCCCN)C(=O)N[C@@H](CC(C)C)C(=O)N[C@@H](CCCNC(=N)N)C(=O)N[C@@H](CCCCN)C(=O)O)[C@@H](C)CC)C(C)C (H-N[Aib]EYYTAIAWVKAFIRKLRK-OH) | 72.4 | 40.6 | 56.9 | 78.9 | 85.3 |  | 
